Structures are written as SMILES. Where only a bound is given, the exact number is not on record here.

Data set [1] is described as follows: Mouse Liver Microsome Metabolic Stability Assay. Type of data set: in vitro ADME. Particulars: pH 7.4, Mouse liver microsomes, 37° C., NADPH, read-out: t½. As for the experimental part: Biological Example 10: Assessment of Metabolic Stability in Mouse Liver Microsomes
Metabolic Stability Assay: Microsomal incubations were carried out in 96-well plates in 5 aliquots of 30 μL each (one for each time point). Liver microsomal incubation medium comprised of phosphate buffer (100 mM, pH 7.4), MgCl2 (3.3 mM), NADPH (3 mM), glucose-6-phosphate (5.3 mM), glucose-6-phosphate dehydrogenase (0.67 units/ml) with 0.42 mg of liver microsomal protein per mL. In the control reactions the NADPH-cofactor system was substituted with phosphate buffer. Test compounds (2 μM, final solvent concentration 1.6%) were incubated with microsomes at 37° C., shaking at 100 rpm. Each reaction was performed in duplicates. Five time points over 40 minutes were analyzed. The reactions were stopped by adding 5 volumes of methanol containing internal standard to incubation aliquots, followed by protein sedimentation by centrifuging at 5500 rpm for 4 minutes. Supernatants were analyzed using the HPLC system coupled with tandem mass spectrometer.
The elimination constant (kel), half-life (t1/2) and intrinsic clearance (Clint) were determined in plot of […] versus time, using linear regression analysis:
In order to indicate the quality of the linear regression analysis, the R (correlation coefficient) values are provided. In some cases, the last time point is excluded from the calculations to ensure acceptable logarithmic linearity of decay.
Table 9 show metabolic stability data for selected compounds tested in the Mouse Liver Microsome Metabolic Stability assay described above.
For orientation: Liver microsomes are a subcellular fraction often used to study metabolism.

Data set [2] concerns KRas G12C mutant. The data set is described as follows: Ras GTP Binding Domain Inhibition Assay (Ras Superfamily Assay). Conditions: for KRas G12C mutant + SOS: % inh.: with SOS; for KRas G12C mutant: % inh.: without SOS. The essentials:
(§1)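 Ni-plate capture of His-tagged protein (10-30 μg/mL, o/n 4° C); cpd 20 μM or dilution series, 1% DMSO, 3 h RT ± Sos 556-1049 last h; 100 nM Cy-labelled GTP 45 min RT; 3× wash; fluorescence read.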

Data set [3] relates to KRas Q61H mutant. The description is as above. Particulars: 20 μM compound; for KRas Q61H mutant + SOS: % inh.: with SOS; for KRas Q61H mutant: % inh.: without SOS. The essentials: as §1
Data set [4] deals with T1, Rho-A (Homo sapiens, UniProt P61586).
T1 construct: made in house
T1 sequence (P61586 whole entry): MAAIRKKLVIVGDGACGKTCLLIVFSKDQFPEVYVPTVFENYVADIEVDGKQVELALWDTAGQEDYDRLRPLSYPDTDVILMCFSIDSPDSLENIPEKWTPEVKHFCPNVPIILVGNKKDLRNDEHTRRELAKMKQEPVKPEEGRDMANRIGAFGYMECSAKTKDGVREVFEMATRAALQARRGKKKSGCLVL
Described as above. Particulars: read-out: Rho-A: % inh.. Summed up: as §1

As to `COc1ccc(Nc2nc(-c3nccn3C)nn3cc(-c4ccn(C)n4)c(C)c23)nc1` [Compound 224, N-(5-Methoxypyridin-2-yl)-5-methyl-2-(1-methyl-1H-imidazol-2-yl)-6-(1-methyl-1H-pyrazol-3-yl)pyrrolo[2,1-f][1,2,4]triazin-4-amine], in data set [1], the half-life at 2 µM was above 10 min.
As for `COCCNc1nc(-c2nccn2C)nn2cc(-c3cccc(OC)c3Cl)c(C)c12` [Compound 16, 6-(2-Chloro-3-methoxyphenyl)-N-(2-methoxyethyl)-5-methyl-2-(1-methyl-1H-imidazol-2-yl)pyrrolo[2,1-f][1,2,4]triazin-4-amine], in data set [2] (20 μM compound), the “KRas G12C mutant + SOS: % inh.” value is given as 0 (0 = 0% inhibition) and the “KRas G12C mutant: % inh.” value was “B (B = 26-49% inhibition)”. For the same molecule, in data set [3], the “KRas Q61H mutant + SOS: % inh.” value was 0 (0 = 0% inhibition) and the “KRas Q61H mutant: % inh.” value was “A (A = 1-25% inhibition)”. Further, the inhibition at 20 µM in data set [4] stood at 0%.
For `Cc1ccc(Nc2nc(-c3nccn3C)nn3cc(-c4ccn(C)n4)c(C)c23)nc1` [Compound 226, 5-Methyl-2-(1-methyl-1H-imidazol-2-yl)-6-(1-methyl-1H-pyrazol-3-yl)-N-(5-methylpyridin-2-yl)pyrrolo[2,1-f][1,2,4]triazin-4-amine], the half-life at 2 µM in data set [1] is above 10 min.
For the molecule `COc1cccc(Nc2nc(-c3ccccn3)nn3cc(-c4ccn(C(C)C)n4)c(C)c23)n1` [Compound 14, 6-(1-Isopropyl-1H-pyrazol-3-yl)-N-(6-methoxypyridin-2-yl)-5-methyl-2-(pyridin-2-yl)pyrrolo[2,1-f][1,2,4]triazin-4-amine], in data set [2] (20 μM compound), the “KRas G12C mutant + SOS: % inh.” value was 0 (0 = 0% inhibition) and the “KRas G12C mutant: % inh.” value is “B (B = 26-49% inhibition)”. Besides, in data set [3], the “KRas Q61H mutant + SOS: % inh.” value is listed as 0 (0 = 0% inhibition) and the “KRas Q61H mutant: % inh.” value is reported as 0 (0 = 0% inhibition). Further, the inhibition at 20 µM in data set [4] is 0%.
Consider `Cc1c(-c2ccn(C)n2)cn2nc(-c3nccn3C)nc(Nc3ccc(N(C)C)cn3)c12` [Compound 227, N5,N5-Dimethyl-N2-(5-methyl-2-(1-methyl-1H-imidazol-2-yl)-6-(1-methyl-1H-pyrazol-3-yl)pyrrolo[2,1-f][1,2,4]triazin-4-yl)pyridine-2,5-diamine], for which, in data set [1], the half-life at 2 µM is above 10 min.
For the molecule `COc1cc(Nc2nc(-c3nccn3C)nn3cc(-c4ccn(C)n4)c(C)c23)ncc1C1CC1` [Compound 238, N-(5-Cyclopropyl-4-methoxypyridin-2-yl)-5-methyl-2-(1-methyl-1H-imidazol-2-yl)-6-(1-methyl-1H-pyrazol-3-yl)pyrrolo[2,1-f][1,2,4]triazin-4-amine], the half-life at 2 µM in data set [1] is above 10 min.
The same measure, in the same setting: next, `Cc1c(-c2ccn(C)n2)cn2nc(-c3nccn3C)nc(Nc3cc(N4CCOCC4)ccn3)c12` [Compound 222, 5-Methyl-2-(1-methyl-1H-imidazol-2-yl)-6-(1-methyl-1H-pyrazol-3-yl)-N-(4-morpholinopyridin-2-yl)pyrrolo[2,1-f][1,2,4]triazin-4-amine]: below 10 min.
As for `COC[C@@H]1CC[C@@H]1CNc1nc(-c2ccccn2)nn2cc(-c3ccn(C(C)C)n3)c(C)c12` (racemic) [Compound 11, rac 6-(1-Isopropyl-1H-pyrazol-3-yl)-N-(((1S,2R)-2-(methoxymethyl)cyclobutyl)methyl)-5-methyl-2-(pyridin-2-yl)pyrrolo[2,1-f][1,2,4]triazin-4-amine], in data set [2] (20 μM compound), the “KRas G12C mutant + SOS: % inh.” value is recorded as 0 (0 = 0% inhibition) and the “KRas G12C mutant: % inh.” value is listed as “B (B = 26-49% inhibition)”. In addition, in data set [3], the “KRas Q61H mutant + SOS: % inh.” value is 0 (0 = 0% inhibition) and the “KRas Q61H mutant: % inh.” value is given as “A (A = 1-25% inhibition)”. Besides, the inhibition at 20 µM in data set [4] came out at 0%.
As to `COc1cccc(-c2cn3nc(-c4nccn4C)nc(O)c3c2C)c1Cl` [Compound 15, 6-(2-Chloro-3-methoxyphenyl)-5-methyl-2-(1-methyl-1H-imidazol-2-yl)pyrrolo[2,1-f][1,2,4]triazin-4-ol], in data set [2] (20 μM compound), the “KRas G12C mutant + SOS: % inh.” value is given as 0 (0 = 0% inhibition) and the “KRas G12C mutant: % inh.” value is listed as 0 (0 = 0% inhibition). Further, in data set [3], the “KRas Q61H mutant + SOS: % inh.” value is recorded as “A (A = 1-25% inhibition)” and the “KRas Q61H mutant: % inh.” value is recorded as “A (A = 1-25% inhibition)”. In addition, the inhibition at 20 µM in data set [4] fell in the range of 1 to 25%.
With `COc1cc(Nc2nc(-c3nccn3C)nn3cc(-c4ccn(C)n4)c(C)c23)ncc1C` [Compound 235, N-(4-Methoxy-5-methylpyridin-2-yl)-5-methyl-2-(1-methyl-1H-imidazol-2-yl)-6-(1-methyl-1H-pyrazol-3-yl)pyrrolo[2,1-f][1,2,4]triazin-4-amine], the half-life at 2 µM in data set [1] was above 10 min.
Consider `Cc1c(-c2ccn(C)n2)cn2nc(-c3nccn3C)nc(N)c12` [Compound 211, 5-Methyl-2-(1-methyl-1H-imidazol-2-yl)-6-(1-methyl-1H-pyrazol-3-yl)pyrrolo[2,1-f][1,2,4]triazin-4-amine], for which, in data set [2] (at 20 μM), the “KRas G12C mutant + SOS: % inh.” value is “D (D = 76-100% inhibition)” and the “KRas G12C mutant: % inh.” value is “C (C = 50-75% inhibition)”.
Take `COC1CCCN(c2nc(-c3ccccn3)nn3cc(-c4ccn(C(C)C)n4)c(C)c23)C1` (racemic) [Compound 12, rac 6-(1-Isopropyl-1H-pyrazol-3-yl)-4-(3-methoxypiperidin-1-yl)-5-methyl-2-(pyridin-2-yl)pyrrolo[2,1-f][1,2,4]triazine]: in data set [2] (20 μM compound), the “KRas G12C mutant + SOS: % inh.” value is 0 (0 = 0% inhibition) and the “KRas G12C mutant: % inh.” value was “B (B = 26-49% inhibition)”. Further, in data set [3], the “KRas Q61H mutant + SOS: % inh.” value is on record as 0 (0 = 0% inhibition) and the “KRas Q61H mutant: % inh.” value is 0 (0 = 0% inhibition). Also, in data set [4], the inhibition at 20 µM is 0%.
`COCC1CCN(c2nc(-c3ccccn3)nn3cc(-c4ccn(C(C)C)n4)c(C)c23)C1` (racemic) [Compound 10, rac 6-(1-Isopropyl-1H-pyrazol-3-yl)-4-(3-(methoxymethyl)pyrrolidin-1-yl)-5-methyl-2-(pyridin-2-yl)pyrrolo[2,1-f][1,2,4]triazine]: in data set [2] (20 μM compound), the “KRas G12C mutant + SOS: % inh.” value is on record as 0 (0 = 0% inhibition) and the “KRas G12C mutant: % inh.” value is recorded as “B (B = 26-49% inhibition)”. Also, in data set [3], the “KRas Q61H mutant + SOS: % inh.” value was 0 (0 = 0% inhibition) and the “KRas Q61H mutant: % inh.” value is reported as “A (A = 1-25% inhibition)”. Further, the inhibition at 20 µM in data set [4] was 0%.
As for `COc1cc(Nc2nc(-c3ccccn3)nn3cc(-c4ccn(C(C)C)n4)c(C)c23)ncn1` [Compound 13, 6-(1-Isopropyl-1H-pyrazol-3-yl)-N-(6-methoxypyrimidin-4-yl)-5-methyl-2-(pyridin-2-yl)pyrrolo[2,1-f][1,2,4]triazin-4-amine], in data set [2] (20 μM compound), the “KRas G12C mutant + SOS: % inh.” value is reported as 0 (0 = 0% inhibition) and the “KRas G12C mutant: % inh.” value was “A (A = 1-25% inhibition)”. In data set [3], the “KRas Q61H mutant + SOS: % inh.” value is 0 (0 = 0% inhibition) and the “KRas Q61H mutant: % inh.” value was 0 (0 = 0% inhibition). Moreover, the inhibition at 20 µM in data set [4] came to 0%.

These data come from patent publication US12459951B2, “Compounds that interact with RAS superfamily proteins for treatment of cancers, inflammatory diseases, rasopathies, and fibrotic disease” (SHY Therapeutics, LLC, priority 2022, dated 2025).
